Laboratory results taken from patent publication US20250034139A1, “AMINE COMPOUNDS HAVING ANTI-INFLAMMATORY, ANTIFUNGAL, ANTIPARASITIC, AND ANTICANCER ACTIVITY” (PHARMA CINQ, LLC, priority 2013, published 2025).

Assays:
THP-1 cells = test: Example D: LPS-triggered THP-1 cell death assay, acute/5-hour and chronic/48-hour; format: cell-based, Human; details: for Viable cell percent change, Chronic/48-hour, Mean: 10 ng/ml LPS, 0.1 μM test compound; for activity relative to AC in the LPS-triggered THP-1 cell death assay, in words: 0.1 μM, 5-hour and 48-hour time points
Method: Compounds of the invention were tested at 0.1 μM versus AC in the LPS-triggered THP-1 cell death assay. Both acute/5-hour and chronic/48-hour phases of cell death were assessed. Compounds were screened in batches with DMSO as the negative control and AC as the high activity control.

[1] = tested on: 4T1 murine breast cancer cells; test: Example S: in vitro anticancer screen, 4T1 cells, Wst1; format: cell-based, mouse; details: Mus musculus, 4T1, 18 h, 18 hr, Wst1; for viability at 1 µM: read-out: 4T1 1 μM, percent of cancer cell survival relative to vehicle treated cells; for viability at 5 µM: read-out: 4T1 5 μM, percent of cancer cell survival relative to vehicle treated cells
How it was run: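 Read-out is Wst1 absorbance (450 nm, reference 630 nm) after roughly 2 hr dye incubation, giving percent cell survival versus vehicle. Before that, compounds at 1 μM or 5 μM were applied for 18 hr to 4T1 cells plated at 1×10^4 per well.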

[2] = tested on: PC3 human prostate cancer cells; test: Example S: in vitro anticancer screen, PC-3 cells, Wst1; format: cell-based; details: Homo sapiens, PC-3, approximately 20 hours, Wst1, read-out: PC-3, percent of cancer cell survival relative to vehicle treated cells
Method: Activity against PC3 human prostate cancer cells in vitro was assessed by a similar method. PC-3 prostate cancer cells were plated at 2×10^4 cells/well in 96 well flat bottom tissue culture plates, and incubated for approximately 20 hours with vehicle or test compounds at concentrations of 0.4, 0.5 or 2.5 μM as indicated for specific compounds in the right-hand column of Table 37. A 1/10th volume of Wst1 dye was added/well and incubated for two hours in the cell culture incubator. Samples were analyzed in triplicate on an EL800 Universal Microplate Reader at 450 nm, reference wavelength 630 nm.
Numerical values in the Table 37 represent percent of cancer cell survival relative to vehicle treated cells at the indicated concentrations, with values under 100 indicating anticancer cytotoxic activity at the drugs concentrations tested.

[3] = tested on: PC-3 prostate cancer cells; test: Example T: sensitisation of PC-3 cells to doxorubicin, oxaliplatin, paclitaxel or vincristine, Wst1; format: cell-based, human; details: PC-3 cells, 72 hours; for viability at 0.4 µM / viability at 0.5 µM / viability at 2.5 µM: Homo sapiens, Wst1, vehicle = 100, read-out: No Chemo: percent cell survival; for viability at 0.4 µM: compound 0.4 μM alone; for Doxorubicin 3.5 μM: percent cell survival / Oxaliplatin 100 μM: percent cell survival / Paclitaxel 50 μM: percent cell survival / Vincristine 100 nM: percent cell survival: chemotherapy agent alone normalized to 100%; for viability at 0.5 µM: compound 0.5 μM alone; for viability at 2.5 µM: compound 2.5 μM alone
[4] = compound 0.4 μM + doxorubicin 3.5 μM
[5] = compound 0.4 μM + oxaliplatin 100 μM
[6] = compound 0.4 μM + paclitaxel 50 μM
[7] = compound 0.4 μM + vincristine 100 nM
[8] = compound 0.5 μM + doxorubicin 3.5 μM
[9] = compound 0.5 μM + oxaliplatin 100 μM
[10] = compound 0.5 μM + paclitaxel 50 μM
[11] = compound 0.5 μM + vincristine 100 nM
[12] = compound 2.5 μM + doxorubicin 3.5 μM
[13] = compound 2.5 μM + oxaliplatin 100 μM
[14] = compound 2.5 μM + paclitaxel 50 μM
[15] = compound 2.5 μM + vincristine 100 nM

Row | SMILES | Viable cell percent change, Chronic/48-hour, Mean (THP-1 cells) [%] | viability at 1 µM [1] [%] | viability at 5 µM [1] [%] | viability at 0.4 µM [2] [%] | viability at 0.4 µM [3] [%] | Doxorubicin 3.5 μM: percent cell survival [3, 4] [%] | Oxaliplatin 100 μM: percent cell survival [3, 5] [%] | Paclitaxel 50 μM: percent cell survival [3, 6] [%] | Vincristine 100 nM: percent cell survival [3, 7] [%] | other results
1 | CCCCCCOCCCCCCCCNc1ccnc2ccccc12 [CH, N-[8-(Hexyloxy)octyl]quinolin-4-amine] | 53.55 | 45.2 | 27.2 | 102 | 102 | 62.8 | 101.1 | 84.6 | 67.4 | –
2 | CCCCCCOCCCCCCNc1ccnc2ccccc12 [CK, N-[6-(Hexyloxy)hexyl]quinolin-4-amine] | 42.23 | 62.5 | 45.3 | – | – | – | – | – | – | viability at 0.5 µM [2]: 51.4%; viability at 0.5 µM [3]: 51.4%; Doxorubicin 3.5 μM: percent cell survival [3, 8]: 111.6%; Oxaliplatin 100 μM: percent cell survival [3, 9]: 143%; Paclitaxel 50 μM: percent cell survival [3, 10]: 64.2%; Vincristine 100 nM: percent cell survival [3, 11]: 138.2%
3 | CCCCOCCCCCCNc1ccnc2ccccc12 [CL, N-(6-Butoxyhexyl)quinolin-4-amine] | 29.43 | 25.6 | 19.5 | 58.1 | 58.1 | 22.6 | 23.2 | 50.3 | 27.7 | activity relative to AC in the LPS-triggered THP-1 cell death assay, in words (THP-1 cells): equivalent activity to AC at both the 5-hour and 48-hour time points
4 | c1ccc(COCCCCCCCCNc2ccnc3ccccc23)cc1 [CO, N-[8-(Benzyloxy)octyl]quinolin-4-amine] | 43.95 | 28.4 | 55.6 | 77.1 | 77.1 | 28.4 | 29.2 | 51.6 | 32.8 | –
5 | CCCCCCOc1ccccc1OCCCCNc1ccnc2ccccc12 [CR, N-{4-[2-(Hexyloxy)phenoxy]butyl}quinolin-4-amine] | 40.02 | 110 | 31.8 | – | – | – | – | – | – | viability at 2.5 µM [2]: 53.2%; viability at 2.5 µM [3]: 53.2%; Doxorubicin 3.5 μM: percent cell survival [3, 12]: 87.6%; Oxaliplatin 100 μM: percent cell survival [3, 13]: 89.3%; Paclitaxel 50 μM: percent cell survival [3, 14]: 93.4%; Vincristine 100 nM: percent cell survival [3, 15]: 86.9%
6 | CCCCCCOc1cccc(OCCCCNc2ccnc3ccccc23)c1 [CV, N-{4-[3-(Hexyloxy)phenoxy]butyl}quinolin-4-amine] | 23.02 | 25.7 | 16.9 | – | – | – | – | – | – | activity relative to AC in the LPS-triggered THP-1 cell death assay, in words (THP-1 cells): equivalent activity to AC at both the 5-hour and 48-hour time points; viability at 0.5 µM [2]: 73.8%; viability at 0.5 µM [3]: 73.8%; Doxorubicin 3.5 μM: percent cell survival [3, 8]: 36.2%; Oxaliplatin 100 μM: percent cell survival [3, 9]: 30.6%; Paclitaxel 50 μM: percent cell survival [3, 10]: 21.4%; Vincristine 100 nM: percent cell survival [3, 11]: 36.1%
7 | CCCCCCOc1cccc(OCCNc2ccnc3ccccc23)c1 [CW, N-{2-[3-(Hexyloxy)phenoxy]ethyl}quinolin-4-amine] | 43.71 | 25.1 | 18.4 | 98.5 | 98.5 | 31.9 | 26.6 | 55.9 | 69.4 | –
8 | CCCCCCOc1ccc(OCCCNc2ccnc3ccccc23)cc1 [CY, N-{3-[4-(Hexyloxy)phenoxy]propyl}quinolin-4-amine] | 47.86 | 24.5 | 29.1 | 40.5 | 40.5 | 76.6 | 84.3 | 71.7 | 81.7 | –
9 | CC(C)(C)c1ccc(OCCCCCCCCNc2ccnc3ccccc23)cc1 [DA, N-[8-(4-tert-Butylphenoxy)octyl]quinolin-4-amine] | 43.55 | 17.6 | 18.4 | 95.7 | 95.7 | 82.8 | 91.3 | 100.8 | 19.1 | –
10 | Fc1ccccc1OCCCCCCCCNc1ccnc2ccccc12 [DB, N-[8-(2-Fluorophenoxy)octyl]quinolin-4-amine] | 20.47 | 20.1 | 22.2 | 24.7 | 24.7 | 56 | 62.3 | 40.3 | 29.6 | –
11 | c1ccc(Oc2ccccc2Nc2ccnc3ccccc23)cc1 [DF, N-(2-Phenoxyphenyl)quinolin-4-amine] | 39.26 | 27.1 | 20.8 | 102 | 102 | 88.7 | 96.5 | 89.4 | 95.4 | –
12 | c1ccc(COc2ccc(Nc3ccnc4ccccc34)cc2)cc1 [DJ, N-[4-(Benzyloxy)phenyl]quinolin-4-amine] | 22.32 | 89 | 66.9 | – | – | – | – | – | – | viability at 2.5 µM [2]: 85.9%; viability at 2.5 µM [3]: 85.9%; Doxorubicin 3.5 μM: percent cell survival [3, 12]: 116.2%; Oxaliplatin 100 μM: percent cell survival [3, 13]: 137.1%; Paclitaxel 50 μM: percent cell survival [3, 14]: 137.1%; Vincristine 100 nM: percent cell survival [3, 15]: 115.3%
